Experimental data reported in US10633407B2, “14-membered ketolides and methods of their preparation and use” (President and Fellows of Harvard College, priority 2014, dated 2020).
Values after ≈ are worked out from the molar mass of the structure shown.

Experiments:
Assay in all cases: CLSI broth dilution MIC determination
Format in all cases: cell-based
E. coli ATCC 25922 = test system: E. coli ATCC 25922
Excerpt: (§1) MIC data was collected for the novel macrolides that this platform has produced against over 21 unique strains of B. subtilis, E. coli, S. aureus, S. pneumoniae, and H. influenzae, including several multidrug-resistant strains, with a special focus on macrolide resistant mechanisms (vide supra). Azithromycin (Azithro) and Solithromycin (Solithro) were included as a control macrolides in many cases. CLSI standard procedures for broth dilution MIC determination were used. […] These genotypes can be constitutive or inducible.

[1] = test system: E. coli MP-532 clinical-cErmB; conditions: E. coli MP-532, clinical-cErmB
Excerpt: as §1

E. coli MP-541 clinical = test system: E. coli MP-541 clinical
Excerpt: as §1

[2] = test system: E. coli MP-9 ATCC25922:tolC; conditions: E. coli MP-9, ATCC25922:tolC
Excerpt: as §1

[3] = test system: S. aureus (MRSA) MP-513 ST-228 cErm (Clinical-cErm)
Excerpt: as §1

S. aureus ATCC 29213 = test system: S. aureus ATCC 29213
Excerpt: as §1

[4] = test system: S. aureus MP-17 ATCCBAA-977 (BAA 977 iErm); conditions: S. aureus MP-17, ATCCBAA-977, iErm
Excerpt: as §1

S. aureus MRSA: USA300 = test system: S. aureus MRSA: USA300
Excerpt: as §1

A. baumannii ATCC 19606 = test system: A. baumannii ATCC 19606
K. pneumoniae ATCC 10031 = test system: K. pneumoniae ATCC 10031
P. aeruginosa ATCC 27853 = test system: P. aeruginosa ATCC 27853
P. aeruginosa MP-7 PAO1 = test system: P. aeruginosa MP-7 PAO1
[5] = test system: P. aeruginosa MP-8 PAO1:mex (mex-oprM-deletion); conditions: P. aeruginosa MP-8, PAO1:mex, mex-oprM-deletion
[6] = test system: K. pneumoniae MP-548 clinical
[7] = test system: K. pneumoniae MP-546 Clinical-MDR
[8] = test system: A. baumannii MP-577 Clinical-AZT low
[9] = test system: A. baumannii MP-576 Clinical-MDR
E. coli CTX-M-14 = conditions: Gram-negative
Excerpt: as §1

E. coli NDM-1 = conditions: Gram-negative
Excerpt: as §1

E. coli TEM-1 = conditions: E. coli TEM-1; Gram-negative
Excerpt: as §1

H. influenzae ATCC49247 = conditions: Gram-negative
Excerpt: as §1

K. pneumoniae TEM-10 = conditions: Gram-negative
Excerpt: as §1

S. aureus MRSA: USA100 = conditions: S. aureus MRSA: USA100; Gram-positive
Excerpt: as §1

S. aureus USA600, GISA = conditions: S. aureus USA600, GISA; Gram-positive
Excerpt: as §1

S. aureus erm A genotype = conditions: S. aureus erm A genotype; Gram-positive
Excerpt: as §1

S. pneumoniae ATCC 49619 = conditions: S. pneumoniae ATCC 49619; Gram-positive
Excerpt: as §1

[10] = test system: S. pneumoniae mef A genotype (second strain so labelled); conditions: Gram-positive
Excerpt: as §1

S. pyogenes ATCC 19615 = conditions: S. pyogenes ATCC 19615; Gram-positive
[11] = test system: S. pyogenes Macrolide-resistant; conditions: S. pyogenes Macrolide-resistant; Gram-positive
E. faecalis ATCC 29212 = conditions: E. faecalis ATCC 29212; Gram-positive
[12] = test system: E. faecalis Vancomycin-resistant; conditions: E. faecalis Vancomycin-resistant; Gram-positive
[13] = test system: A. baumannii imipenem-resistant; conditions: Gram-negative
[14] = test system: A. baumannii chromosomal class C; conditions: Gram-negative
A. baumannii IMP-4 = conditions: Gram-negative
K. pneumoniae KPC-2 = conditions: Gram-negative
K. pneumoniae SHV-12 = conditions: Gram-negative
[15] = test system: P. aeruginosa HPA101-1477; conditions: Gram-negative
[16] = test system: H. influenzae Erythro >4, Azithro 1; conditions: H. influenzae Erythro >4, Azithro 1; Gram-negative
Excerpt: as §1, with “Azithromycin (Azithro) and Solithromycin (Solithro) were included as a control macrolides in many cases.” left out

[17] = E. coli ATCC 25922, Gram-negative
[18] = S. aureus ATCC 29213, Gram-positive
[19] = S. aureus MRSA: USA300, Gram-positive
[20] = A. baumannii ATCC 19606, Gram-negative
[21] = K. pneumoniae ATCC 10031, Gram-negative
[22] = P. aeruginosa ATCC 27853, Gram-negative

Row | Compound | MIC (E. coli ATCC 25922; [17]) [µg/mL] | MIC (E. coli CTX-M-14) [µg/mL] | MIC (E. coli NDM-1) [µg/mL] | MIC (E. coli TEM-1) [µg/mL] | MIC (H. influenzae ATCC49247) [µg/mL] | MIC (K. pneumoniae TEM-10) [µg/mL] | MIC (S. aureus ATCC 29213; [18]) [µg/mL] | MIC (S. aureus MRSA: USA100) [µg/mL] | MIC (S. aureus MRSA: USA300; [19]) [µg/mL] | MIC (S. aureus USA600, GISA) [µg/mL] | MIC (S. aureus erm A genotype) [µg/mL] | MIC (S. pneumoniae ATCC 49619) [µg/mL] | MIC [10] [µg/mL] | MIC (S. pyogenes ATCC 19615) [µg/mL] | MIC [11] [µg/mL] | MIC (E. faecalis ATCC 29212) [µg/mL] | MIC [12] [µg/mL] | MIC (A. baumannii ATCC 19606; [20]) [µg/mL] | MIC [13] [µg/mL] | MIC [14] [µg/mL] | other results
1 | CCC1OC(=O)C(C)(F)C(=O)C(C)C(OC2OC(C)CC(N(C)C)C2O)C(C)(OC)CC(C)C(=O)C(C)C2N(CC=C=Cn3cc(-c4cnccn4)nn3)C(=O)OC12C (centres unmarked) [FSM-22740] |  |  |  |  |  |  |  |  |  |  |  |  |  |  |  |  |  |  |  |  | MIC (E. coli ATCC 25922; E. coli ATCC 25922 (MP-4)): 16 µg/mL (≈ 19.3 µM); MIC [1]: >64 µg/mL; MIC (E. coli MP-541 clinical): 16 µg/mL (≈ 19.3 µM); MIC [2]: 2 µg/mL (≈ 2.42 µM); MIC [3]: 64 µg/mL (≈ 77.3 µM); MIC (S. aureus ATCC 29213; S. aureus ATCC 29213 (MP-12)): 0.25 µg/mL (≈ 0.302 µM); MIC [4]: 0.25 µg/mL (≈ 0.302 µM); MIC (S. aureus MRSA: USA300; S. aureus MRSA: USA300 (MP-549, msr(a))): 0.25 µg/mL (≈ 0.302 µM); MIC (A. baumannii ATCC 19606; A. baumannii ATCC 19606 (MP-15)): 16 µg/mL (≈ 19.3 µM); MIC (K. pneumoniae ATCC 10031; K. pneumoniae ATCC 10031 (MP-14)): 8 µg/mL (≈ 9.66 µM); MIC (P. aeruginosa ATCC 27853; P. aeruginosa ATCC 27853 (MP-3)): >64 µg/mL; MIC (P. aeruginosa MP-7 PAO1): >64 µg/mL; MIC [5]: 16 µg/mL (≈ 19.3 µM); MIC [6]: >64 µg/mL; MIC [7]: >64 µg/mL; MIC [8]: 64 µg/mL (≈ 77.3 µM); MIC [9]: >64 µg/mL
2 | CC[C@H]1OC(=O)[C@@](C)(F)C(=O)[C@H](C)[C@@H](O[C@@H]2OC(C)CC(N(C)C)C2O)[C@](C)(OC)C[C@@H](C)C(=O)[C@H](C)[C@H]2N(C/C=C/Cn3cc(-c4ccccn4)nn3)C(=O)O[C@]12C (some centres unmarked) [FSM-100383] | 8 (≈ 9.65 µM) | > 32 | 32 (≈ 38.6 µM) | 16 (≈ 19.3 µM) | 0.5 (≈ 0.603 µM) | 16 (≈ 19.3 µM) | < 0.0312 | > 32 | 0.5 (≈ 0.603 µM) | > 32 | > 32 | < 0.0312 | < 0.0312 | < 0.0312 | < 0.0312 | < 0.0312 | > 32 | 4 (≈ 4.83 µM) | 8 (≈ 9.65 µM) | 8 (≈ 9.65 µM) | MIC (A. baumannii IMP-4): > 32 µg/mL; MIC (K. pneumoniae ATCC 10031; [21]): 2 µg/mL (≈ 2.41 µM); MIC (K. pneumoniae KPC-2): > 32 µg/mL; MIC (K. pneumoniae SHV-12): > 32 µg/mL; MIC (P. aeruginosa ATCC 27853; [22]): > 32 µg/mL; MIC [15]: > 32 µg/mL; MIC [16]: 0.5 µg/mL (≈ 0.603 µM)
3 | CC[C@H]1OC(=O)[C@@](C)(F)C(=O)[C@H](C)[C@@H](O[C@@H]2OC(C)CC(N(C)C)C2O)[C@](C)(OC)C[C@@H](C)C(=O)[C@H](C)[C@H]2N(C/C=C/Cn3cc(-c4cccc(N)n4)nn3)C(=O)O[C@]12C (some centres unmarked) [FSM-100407] | 16 (≈ 19 µM) | > 32 | > 32 | > 32 | 1 (≈ 1.18 µM) | 32 (≈ 37.9 µM) | < 0.0312 | > 32 | 0.5 (≈ 0.592 µM) | > 32 | > 32 | < 0.0312 | < 0.0312 | < 0.0312 | < 0.0312 | < 0.0312 | 16 (≈ 19 µM) | 8 (≈ 9.48 µM) | 8 (≈ 9.48 µM) | 8 (≈ 9.48 µM) | MIC (A. baumannii IMP-4): > 32 µg/mL; MIC (K. pneumoniae ATCC 10031; [21]): 4 µg/mL (≈ 4.74 µM); MIC (K. pneumoniae KPC-2): > 32 µg/mL; MIC (K. pneumoniae SHV-12): > 32 µg/mL; MIC (P. aeruginosa ATCC 27853; [22]): 32 µg/mL (≈ 37.9 µM); MIC [15]: > 32 µg/mL; MIC [16]: 1 µg/mL (≈ 1.18 µM)
4 | CC[C@H]1OC(=O)[C@H](C)C(=O)[C@H](C)[C@@H](O[C@@H]2OC(C)CC(N(C)C)C2O)[C@](C)(OC)C[C@@H](C)C(=O)[C@H](C)[C@H]2N(C/C=C/Cn3cnc(-c4ccccn4)c3)C(=O)O[C@]12C (some centres unmarked) [FSM-100421] | 32 (≈ 39.5 µM) | > 32 | > 32 | 32 (≈ 39.5 µM) | 2 (≈ 2.47 µM) | 32 (≈ 39.5 µM) | 0.0625 (≈ 0.0772 µM) | > 32 | 2 (≈ 2.47 µM) | > 32 | > 32 | < 0.0312 | 0.0625 (≈ 0.0772 µM) | < 0.0312 | < 0.0312 | < 0.0312 | 32 (≈ 39.5 µM) | 16 (≈ 19.8 µM) | 16 (≈ 19.8 µM) | 32 (≈ 39.5 µM) | MIC (A. baumannii IMP-4): > 32 µg/mL; MIC (K. pneumoniae ATCC 10031; [21]): 4 µg/mL (≈ 4.94 µM); MIC (K. pneumoniae KPC-2): > 32 µg/mL; MIC (K. pneumoniae SHV-12): > 32 µg/mL; MIC (P. aeruginosa ATCC 27853; [22]): > 32 µg/mL; MIC [15]: > 32 µg/mL; MIC [16]: 1 µg/mL (≈ 1.23 µM)
